Experimental data from article PMC6706627, “Mapping Interactions of Microbial Metabolites with Human G-Protein-Coupled Receptors” (Cell Host & Microbe, 2019).
pEC50: −log10 of the molar value. Where a SMILES comes first, the peptide text is derived from it. Bridges are numbered along the chain shown (N, C = ends). [ ]: non-standard residue; d: D form.

Legend:
PTGIR = PTGIR (Homo sapiens, UniProt P43119); test: cell-based; parameters: species or system recombinant GPCR reporter cell lines; PathHunter beta-arrestin recruitment (beta-galactosidase complementation), chemiluminescence, agonist mode, Eurofins DiscoverX
Chain of PTGIR (P43119 whole entry): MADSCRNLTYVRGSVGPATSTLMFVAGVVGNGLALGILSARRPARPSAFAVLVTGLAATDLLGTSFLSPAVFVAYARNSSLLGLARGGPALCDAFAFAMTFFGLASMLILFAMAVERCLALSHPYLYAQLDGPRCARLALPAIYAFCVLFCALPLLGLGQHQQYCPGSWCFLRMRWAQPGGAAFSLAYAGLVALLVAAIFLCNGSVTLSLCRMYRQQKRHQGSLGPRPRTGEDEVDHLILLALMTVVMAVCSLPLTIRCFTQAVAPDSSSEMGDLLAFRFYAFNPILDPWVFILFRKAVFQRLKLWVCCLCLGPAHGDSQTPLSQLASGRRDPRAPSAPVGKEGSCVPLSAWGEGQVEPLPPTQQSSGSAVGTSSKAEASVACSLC

GPR109B [1] = biological target: T1, GPR109B (Homo sapiens, UniProt P49019); test: PathHunter beta-arrestin recruitment assay, dose-response of the known agonist; type: cell-based
T1 construct: gene HCAR3
T1 sequence (P49019 whole entry): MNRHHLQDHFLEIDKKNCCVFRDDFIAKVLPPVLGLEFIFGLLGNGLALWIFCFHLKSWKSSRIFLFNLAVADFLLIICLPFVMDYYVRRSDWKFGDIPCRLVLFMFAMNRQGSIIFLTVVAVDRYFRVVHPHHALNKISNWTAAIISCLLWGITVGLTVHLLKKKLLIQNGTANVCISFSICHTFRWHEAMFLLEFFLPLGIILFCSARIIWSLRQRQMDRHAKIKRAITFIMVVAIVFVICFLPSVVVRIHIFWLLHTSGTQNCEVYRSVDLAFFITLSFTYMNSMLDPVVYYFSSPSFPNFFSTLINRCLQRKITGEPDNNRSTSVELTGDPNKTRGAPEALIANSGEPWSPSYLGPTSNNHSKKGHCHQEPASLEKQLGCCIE
Text: PathHunter beta-arrestin recruitment assay, dose-response of the known agonist on GPR109B | This previously unknown GPR109B agonist elicited a similar GPCR response to 3-hydroxyoctanoic acid

OXER1 = OXER1 (Homo sapiens, UniProt Q8TDS5); test: cell-based; parameters: species or system recombinant GPCR reporter cell lines; PathHunter beta-arrestin recruitment (beta-galactosidase complementation), chemiluminescence, agonist mode, Eurofins DiscoverX
Chain of OXER1 (Q8TDS5 whole entry): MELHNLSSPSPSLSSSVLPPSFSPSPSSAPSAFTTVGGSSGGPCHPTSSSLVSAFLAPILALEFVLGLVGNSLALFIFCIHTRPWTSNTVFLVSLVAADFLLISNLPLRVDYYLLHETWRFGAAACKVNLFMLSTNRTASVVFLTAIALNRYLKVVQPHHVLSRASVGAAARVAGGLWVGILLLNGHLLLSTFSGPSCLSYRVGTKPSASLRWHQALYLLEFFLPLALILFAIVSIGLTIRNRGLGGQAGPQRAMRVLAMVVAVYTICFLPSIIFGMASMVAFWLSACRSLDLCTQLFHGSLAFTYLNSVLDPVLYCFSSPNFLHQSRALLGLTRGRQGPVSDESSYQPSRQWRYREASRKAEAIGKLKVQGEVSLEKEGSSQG

EBI2 = biological target: T2, EBI2 (Homo sapiens, UniProt P32249); test: cell-based; parameters: species or system recombinant GPCR reporter cell lines; PathHunter beta-arrestin recruitment (beta-galactosidase complementation), chemiluminescence, agonist mode, Eurofins DiscoverX; settings: agonist; read-out: RC50 (the source's name)
T2 construct: gene GPR183
T2 sequence (P32249 whole entry): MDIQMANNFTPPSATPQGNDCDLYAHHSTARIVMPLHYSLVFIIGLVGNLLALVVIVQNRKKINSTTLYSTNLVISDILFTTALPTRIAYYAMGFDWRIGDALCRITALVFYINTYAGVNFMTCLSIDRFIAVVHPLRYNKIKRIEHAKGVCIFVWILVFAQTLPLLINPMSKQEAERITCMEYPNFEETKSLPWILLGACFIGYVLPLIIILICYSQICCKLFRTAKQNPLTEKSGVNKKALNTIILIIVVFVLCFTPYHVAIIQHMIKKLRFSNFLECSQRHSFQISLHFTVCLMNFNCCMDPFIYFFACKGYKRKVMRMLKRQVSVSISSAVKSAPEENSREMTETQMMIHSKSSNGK

[2] = biological target: T3, brain angiogenesis factor 1 (BAI1) receptor (Homo sapiens, UniProt O14514); test: PathHunter beta-arrestin recruitment assay in a recombinant reporter cell line, dose-response; type: cell-based
T3 construct: gene ADGRB1
T3 sequence (O14514 31-1584): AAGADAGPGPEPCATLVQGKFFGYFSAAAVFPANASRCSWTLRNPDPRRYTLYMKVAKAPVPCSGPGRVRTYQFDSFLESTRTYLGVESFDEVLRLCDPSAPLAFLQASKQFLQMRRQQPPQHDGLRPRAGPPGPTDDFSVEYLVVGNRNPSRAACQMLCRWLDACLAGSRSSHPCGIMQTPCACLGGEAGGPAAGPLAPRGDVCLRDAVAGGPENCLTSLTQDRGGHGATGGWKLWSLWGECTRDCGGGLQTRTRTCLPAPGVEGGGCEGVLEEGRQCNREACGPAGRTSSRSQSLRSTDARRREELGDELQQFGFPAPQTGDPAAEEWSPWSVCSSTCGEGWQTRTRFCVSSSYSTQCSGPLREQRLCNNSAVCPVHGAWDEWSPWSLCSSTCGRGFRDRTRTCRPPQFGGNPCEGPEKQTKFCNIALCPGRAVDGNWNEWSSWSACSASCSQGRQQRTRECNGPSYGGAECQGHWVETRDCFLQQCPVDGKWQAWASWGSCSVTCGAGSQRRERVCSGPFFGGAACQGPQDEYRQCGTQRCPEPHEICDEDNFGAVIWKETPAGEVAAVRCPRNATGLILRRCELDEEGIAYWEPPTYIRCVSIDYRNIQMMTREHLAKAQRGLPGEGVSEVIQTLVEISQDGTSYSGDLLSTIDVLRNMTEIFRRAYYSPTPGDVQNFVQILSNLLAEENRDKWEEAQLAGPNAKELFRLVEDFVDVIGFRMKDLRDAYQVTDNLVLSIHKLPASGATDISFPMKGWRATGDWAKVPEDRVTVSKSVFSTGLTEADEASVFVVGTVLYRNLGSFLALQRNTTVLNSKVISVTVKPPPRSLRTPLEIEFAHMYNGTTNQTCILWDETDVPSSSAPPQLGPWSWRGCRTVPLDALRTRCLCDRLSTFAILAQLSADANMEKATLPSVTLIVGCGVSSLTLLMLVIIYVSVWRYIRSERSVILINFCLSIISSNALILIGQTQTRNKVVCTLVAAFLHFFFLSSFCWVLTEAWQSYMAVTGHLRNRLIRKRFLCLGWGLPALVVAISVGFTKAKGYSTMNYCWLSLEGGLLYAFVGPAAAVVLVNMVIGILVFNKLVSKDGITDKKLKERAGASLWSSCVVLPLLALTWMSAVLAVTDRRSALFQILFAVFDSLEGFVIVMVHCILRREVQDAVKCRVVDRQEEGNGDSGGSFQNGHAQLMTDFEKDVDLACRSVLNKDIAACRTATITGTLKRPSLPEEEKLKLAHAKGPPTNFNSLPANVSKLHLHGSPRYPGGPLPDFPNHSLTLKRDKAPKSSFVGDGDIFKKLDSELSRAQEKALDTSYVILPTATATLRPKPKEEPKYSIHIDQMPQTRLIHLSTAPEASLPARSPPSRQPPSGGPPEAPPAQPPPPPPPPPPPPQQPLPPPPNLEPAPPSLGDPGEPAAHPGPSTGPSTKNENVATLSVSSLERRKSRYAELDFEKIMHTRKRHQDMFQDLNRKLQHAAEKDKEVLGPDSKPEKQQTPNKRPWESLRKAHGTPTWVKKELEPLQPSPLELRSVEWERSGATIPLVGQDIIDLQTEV

MRGPRX2 = biological target: T4, MRGPRX2 (Homo sapiens, UniProt Q96LB1); test: cell-based; parameters: species or system recombinant GPCR reporter cell lines; PathHunter beta-arrestin recruitment (beta-galactosidase complementation), chemiluminescence, agonist mode, Eurofins DiscoverX
T4 sequence (Q96LB1 1-330): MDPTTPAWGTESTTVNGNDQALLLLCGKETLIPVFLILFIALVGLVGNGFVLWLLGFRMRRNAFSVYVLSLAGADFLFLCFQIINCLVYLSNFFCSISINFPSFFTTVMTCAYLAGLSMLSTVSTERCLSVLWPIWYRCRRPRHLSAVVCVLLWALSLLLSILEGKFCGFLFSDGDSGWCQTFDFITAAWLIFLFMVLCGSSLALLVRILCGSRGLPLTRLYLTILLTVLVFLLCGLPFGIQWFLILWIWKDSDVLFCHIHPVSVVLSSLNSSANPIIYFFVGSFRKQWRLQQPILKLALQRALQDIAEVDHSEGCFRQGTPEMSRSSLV

FFAR1 = FFAR1 (Homo sapiens, UniProt O14842); test: cell-based; parameters: species or system recombinant GPCR reporter cell lines; PathHunter beta-arrestin recruitment (beta-galactosidase complementation), chemiluminescence, agonist mode, Eurofins DiscoverX
Chain of FFAR1 (O14842 whole entry): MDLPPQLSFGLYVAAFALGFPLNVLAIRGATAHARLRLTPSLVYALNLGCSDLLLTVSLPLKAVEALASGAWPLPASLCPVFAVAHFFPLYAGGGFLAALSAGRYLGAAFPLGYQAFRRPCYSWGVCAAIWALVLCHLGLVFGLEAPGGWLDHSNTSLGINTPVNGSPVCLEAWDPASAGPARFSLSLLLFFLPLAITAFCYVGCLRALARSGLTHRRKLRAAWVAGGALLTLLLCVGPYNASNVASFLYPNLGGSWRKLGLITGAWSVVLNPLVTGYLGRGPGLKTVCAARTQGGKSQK

KISS1R = KISS1R (Homo sapiens, UniProt Q969F8); test: cell-based; parameters: species or system recombinant GPCR reporter cell lines; PathHunter beta-arrestin recruitment (beta-galactosidase complementation), chemiluminescence, agonist mode, Eurofins DiscoverX
Chain of KISS1R (Q969F8 whole entry): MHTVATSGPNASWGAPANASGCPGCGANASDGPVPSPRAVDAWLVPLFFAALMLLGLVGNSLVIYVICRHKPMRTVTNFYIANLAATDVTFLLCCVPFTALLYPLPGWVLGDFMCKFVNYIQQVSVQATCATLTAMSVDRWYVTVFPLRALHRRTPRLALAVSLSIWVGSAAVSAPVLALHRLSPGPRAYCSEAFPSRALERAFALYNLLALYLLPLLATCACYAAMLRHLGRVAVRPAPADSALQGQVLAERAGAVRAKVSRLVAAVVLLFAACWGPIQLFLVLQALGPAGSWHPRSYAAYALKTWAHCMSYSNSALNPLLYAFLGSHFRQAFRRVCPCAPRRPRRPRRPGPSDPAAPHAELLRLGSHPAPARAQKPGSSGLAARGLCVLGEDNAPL

GPR119 = biological target: T5, GPR119 (Homo sapiens, UniProt Q8TDV5); test: cell-based; parameters: species or system recombinant GPCR reporter cell lines; PathHunter beta-arrestin recruitment (beta-galactosidase complementation), chemiluminescence, agonist mode, Eurofins DiscoverX
T5 sequence (Q8TDV5 1-335): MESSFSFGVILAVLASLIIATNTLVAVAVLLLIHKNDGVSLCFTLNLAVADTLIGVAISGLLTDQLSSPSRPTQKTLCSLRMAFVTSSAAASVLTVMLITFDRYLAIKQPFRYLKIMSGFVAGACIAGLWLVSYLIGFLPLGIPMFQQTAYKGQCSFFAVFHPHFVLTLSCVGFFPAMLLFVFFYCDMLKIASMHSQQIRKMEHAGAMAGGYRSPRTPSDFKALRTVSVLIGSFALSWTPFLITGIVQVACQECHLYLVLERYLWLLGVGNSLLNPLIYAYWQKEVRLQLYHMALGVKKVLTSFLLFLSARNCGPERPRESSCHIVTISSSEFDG

CRTH2 = biological target: T6, CRTH2 (Homo sapiens, UniProt Q9Y5Y4); test: cell-based; parameters: species or system recombinant GPCR reporter cell lines; PathHunter beta-arrestin recruitment (beta-galactosidase complementation), chemiluminescence, agonist mode, Eurofins DiscoverX
T6 construct: gene PTGDR2
T6 sequence (Q9Y5Y4 1-395): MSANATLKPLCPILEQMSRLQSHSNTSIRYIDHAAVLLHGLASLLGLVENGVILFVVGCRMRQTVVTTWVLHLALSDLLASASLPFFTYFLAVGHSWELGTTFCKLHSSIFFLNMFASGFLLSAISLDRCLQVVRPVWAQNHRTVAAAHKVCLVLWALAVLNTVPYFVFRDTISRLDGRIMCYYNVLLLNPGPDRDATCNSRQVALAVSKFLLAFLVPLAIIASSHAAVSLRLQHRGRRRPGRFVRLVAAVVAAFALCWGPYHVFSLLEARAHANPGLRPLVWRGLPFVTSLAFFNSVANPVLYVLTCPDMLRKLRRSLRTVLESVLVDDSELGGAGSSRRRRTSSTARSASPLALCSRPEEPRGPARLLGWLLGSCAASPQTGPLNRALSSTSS

PTHR2 = biological target: T7, PTHR2 (Homo sapiens, UniProt P49190); test: cell-based; parameters: species or system recombinant GPCR reporter cell lines; PathHunter beta-arrestin recruitment (beta-galactosidase complementation), chemiluminescence, agonist mode, Eurofins DiscoverX
T7 construct: gene PTH2R
T7 sequence (P49190 whole entry): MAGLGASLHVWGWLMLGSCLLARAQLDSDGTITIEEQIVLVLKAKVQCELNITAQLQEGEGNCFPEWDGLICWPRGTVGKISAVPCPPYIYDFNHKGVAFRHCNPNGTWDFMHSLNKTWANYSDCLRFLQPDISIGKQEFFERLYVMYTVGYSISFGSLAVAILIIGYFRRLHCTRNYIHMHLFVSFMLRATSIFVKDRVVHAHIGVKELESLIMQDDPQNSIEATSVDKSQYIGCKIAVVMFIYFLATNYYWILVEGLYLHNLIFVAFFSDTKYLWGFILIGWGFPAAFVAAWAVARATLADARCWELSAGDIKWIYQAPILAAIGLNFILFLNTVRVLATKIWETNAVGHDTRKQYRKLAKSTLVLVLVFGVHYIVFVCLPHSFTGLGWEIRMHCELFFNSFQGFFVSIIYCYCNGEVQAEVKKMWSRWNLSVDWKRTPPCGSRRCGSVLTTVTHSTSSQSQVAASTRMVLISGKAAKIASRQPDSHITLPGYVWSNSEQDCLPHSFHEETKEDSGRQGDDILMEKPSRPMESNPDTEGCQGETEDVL

[3] = biological target: T8, urotensin 2 receptor (UTR2) (Homo sapiens, UniProt Q9UKP6); test: PathHunter beta-arrestin recruitment assay in a recombinant reporter cell line, dose-response; type: cell-based
T8 construct: gene UTS2R
T8 sequence (Q9UKP6 1-389): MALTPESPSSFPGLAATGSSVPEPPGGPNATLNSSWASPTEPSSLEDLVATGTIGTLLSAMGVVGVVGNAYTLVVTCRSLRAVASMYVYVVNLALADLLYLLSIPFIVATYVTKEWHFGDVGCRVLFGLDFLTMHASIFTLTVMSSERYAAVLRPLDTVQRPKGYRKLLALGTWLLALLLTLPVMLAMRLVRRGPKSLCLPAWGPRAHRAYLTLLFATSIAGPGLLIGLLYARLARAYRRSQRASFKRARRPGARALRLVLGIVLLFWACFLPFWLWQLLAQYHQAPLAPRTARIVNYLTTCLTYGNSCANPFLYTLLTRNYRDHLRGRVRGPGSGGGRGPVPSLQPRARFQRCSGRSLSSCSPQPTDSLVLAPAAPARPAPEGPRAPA

[4] = biological target: T9, neuromedin receptor 1 (NMU1R) (Homo sapiens, UniProt Q9HB89); test: as above; type: cell-based
T9 construct: gene NMUR1
T9 sequence (Q9HB89 1-426): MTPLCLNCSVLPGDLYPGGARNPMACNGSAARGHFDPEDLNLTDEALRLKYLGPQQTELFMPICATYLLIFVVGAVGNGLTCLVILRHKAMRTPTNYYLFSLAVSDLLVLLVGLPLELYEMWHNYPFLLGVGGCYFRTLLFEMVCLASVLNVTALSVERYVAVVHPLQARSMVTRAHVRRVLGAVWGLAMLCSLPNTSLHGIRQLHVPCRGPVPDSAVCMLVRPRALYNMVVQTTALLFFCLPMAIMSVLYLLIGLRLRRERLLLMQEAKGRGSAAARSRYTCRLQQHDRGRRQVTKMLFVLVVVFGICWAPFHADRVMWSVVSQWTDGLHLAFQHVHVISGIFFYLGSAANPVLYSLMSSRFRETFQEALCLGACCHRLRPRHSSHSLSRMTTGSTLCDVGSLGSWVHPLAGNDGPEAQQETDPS

HRH4 = HRH4 (Homo sapiens, UniProt Q9H3N8); test: PathHunter beta-arrestin recruitment assay in a recombinant reporter cell line, commercial standard, dose-response; type: cell-based
Chain of HRH4 (Q9H3N8 whole entry): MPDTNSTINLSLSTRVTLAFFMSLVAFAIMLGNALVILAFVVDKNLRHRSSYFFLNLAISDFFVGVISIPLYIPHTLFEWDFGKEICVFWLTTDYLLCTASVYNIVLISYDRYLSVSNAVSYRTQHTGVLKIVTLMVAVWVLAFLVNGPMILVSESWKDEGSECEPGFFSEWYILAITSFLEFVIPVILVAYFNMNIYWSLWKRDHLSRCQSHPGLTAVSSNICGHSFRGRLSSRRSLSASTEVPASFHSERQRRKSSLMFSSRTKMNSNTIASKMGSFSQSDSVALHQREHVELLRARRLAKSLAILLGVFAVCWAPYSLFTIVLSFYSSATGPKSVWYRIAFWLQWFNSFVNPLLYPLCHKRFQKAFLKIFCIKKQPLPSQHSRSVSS

GPR109B [5] = biological target: T1, GPR109B; test: PathHunter beta-arrestin recruitment assay in a recombinant reporter cell line, dose-response; type: cell-based

## CC#CCC(C)[C@H](O)/C=C/[C@@H]1[C@H]2c3cccc(CCCC(=O)O)c3O[C@H]2C[C@H]1O (mixture of isomers) [Beraprost]
PTGIR
  pEC50: 6.51

## CCCCCC(O)CC(=O)O (stereo not drawn) [3-hydroxyoctanoic acid]
GPR109B [1]
  pEC50: 3.52

## CCCCC/C=C\C/C=C\C/C=C\C=C\C(=O)CCCC(=O)O [5-OxoETE]
OXER1
  pEC50: 6.16

## C[C@H](CCCC(C)(C)O)[C@H]1CC[C@H]2[C@@H]3[C@H](O)C=C4C[C@@H](O)CC[C@]4(C)[C@H]3CC[C@]12C [7a,25-Dihydroxycholesterol]
EBI2
  pEC50: 6.72

## CCCCCCC1CC1CCCCCCCC(=O)O (stereo not drawn) [9,10-methylenehexadecanoic acid, cis-9,10-methylenehexadecanoic acid]
[2]
  pEC50: 4.96

## C[C@@H](O)[C@@H]1NC(=O)[C@@H](CCCCN)NC(=O)[C@H](Cc2c[nH]c3ccccc23)NC(=O)[C@H](Cc2ccccc2)NC(=O)[C@H](Cc2ccccc2)NC(=O)[C@H](CC(N)=O)NC(=O)[C@H](CCCCN)NC(=O)[C@@H](NC(=O)[C@@H]2CCCN2)CSSC[C@@H](C(=O)N[C@@H](CCCCN)C(=O)O)NC(=O)[C@H](CO)NC(=O)[C@H](CO)NC(=O)[C@@H](Cc2ccccc2)NC1=O [Cortistatin 14] (H-PCKNFFW[dK]T[dF]SSCK-OH; disulfide 2-13)
MRGPRX2
  pEC50: 6.20

## O=C(O)CCc1ccc(NCc2cccc(Oc3ccccc3)c2)cc1 [GW9508]
FFAR1
  pEC50: 6.54

## CC(C)C[C@H](NC(=O)CNC(=O)[C@H](Cc1ccccc1)NC(=O)[C@H](CO)NC(=O)[C@H](CC(N)=O)NC(=O)[C@H](Cc1c[nH]c2ccccc12)NC(=O)[C@H](CC(N)=O)NC(=O)[C@@H](N)Cc1ccc(O)cc1)C(=O)N[C@@H](CCCNC(=N)N)C(=O)N[C@@H](Cc1ccccc1)C(N)=O [Kisspeptin-10]
KISS1R
  pEC50: 7.93

## CCCCCCCC/C=C\CCCCCCCC(=O)NCCO [Oleoyl Ethanolamide]
GPR119
  pEC50: 5.76

## CCCCC[C@H](O)/C=C/[C@H]1C(=O)C[C@H](O)[C@@H]1C/C=C\CCCC(=O)O [PGD2]
CRTH2
  pEC50: 7.71

## CCCCC#CCCCCCCCC(=O)OC [TIP-39]
PTHR2
  pEC50: 9.07

## CCC(C)CCCCCCCCCCC(=O)O (stereo not drawn) [aiC15:0, 12-methyltetradecanoic acid]
[3]
  pEC50: 3.72
[4]
  pEC50: 3.90

## NCCCCCN [cadaverine]
HRH4
  pEC50: 5.96

## O=C(O)CCc1ccccc1 [phenylpropanoic acid]
GPR109B [5]
  pEC50: 3.68
